{"source": "paper PMC5218480", "about": "(PLoS ONE, 2017)", "test_system": "MV-4-11 cells", "assay": "Gene expression microarray analysis (Affymetrix PrimeView) and GSEA", "type": "cell-based, human", "design": "RFU PODN (11730768_x_at) / Fold change /veh PODN (11730768_x_at) / RFU LINC00158 (11744669_a_at) / Fold change /veh LINC00158 (11744669_a_at) / RFU DUSP10 (11751237_a_at) / Fold change /veh DUSP10 (11751237_a_at) / RFU ID3 (11757404_x_at) / Fold change /veh ID3 (11757404_x_at) / RFU PLEKHG5 (11737974_s_at) / Fold change /veh PLEKHG5 (11737974_s_at) / RFU LRRC4B (11730491_at) / Fold change /veh LRRC4B (11730491_at) / RFU GIMAP4 (11747438_a_at) / Fold change /veh GIMAP4 (11747438_a_at) / RFU KRT8 (11758183_x_at) / Fold change /veh KRT8 (11758183_x_at) / RFU CNN1 (11734310_a_at) / Fold change /veh CNN1 (11734310_a_at) / RFU VPS37D (11726825_at) / Fold change /veh VPS37D (11726825_at) / RFU C10orf10 (11716522_x_at) / Fold change /veh C10orf10 (11716522_x_at) / RFU KIR2DL2 /// KIR2DL4 /// KIR2DL5A /// KIR2DL5B /// KIR2DS1 /// KIR2DS2 /// KIR2DS3 /// KIR2DS4 /// KIR3DL3 /// KIR3DL3 /// KIR3DS1 (11738374_at) / Fold change /veh KIR2DL2 /// KIR2DL4 /// KIR2DL5A /// KIR2DL5B /// KIR2DS1 /// KIR2DS2 /// KIR2DS3 /// KIR2DS4 /// KIR3DL3 /// KIR3DL3 /// KIR3DS1 (11738374_at) / RFU C1QL1 (11718748_at) / Fold change /veh C1QL1 (11718748_at) / RFU TMPRSS4 (11747572_a_at) / Fold change /veh TMPRSS4 (11747572_a_at) / RFU HAMP (11756126_x_at) / Fold change /veh HAMP (11756126_x_at) / RFU RNFT2 (11725882_a_at) / Fold change /veh RNFT2 (11725882_a_at) / RFU NR4A2 (11747474_a_at) / Fold change /veh NR4A2 (11747474_a_at) / RFU ABCC12 (11746883_a_at) / Fold change /veh ABCC12 (11746883_a_at) / RFU TMEM136 (11760407_x_at) / Fold change /veh TMEM136 (11760407_x_at) / RFU CLDN22 /// WWC2 (11732394_at) / Fold change /veh CLDN22 /// WWC2 (11732394_at) / RFU HLA-DPB1 (11760878_x_at) / Fold change /veh HLA-DPB1 (11760878_x_at) / RFU SPINT1 (11716480_a_at) / Fold change /veh SPINT1 (11716480_a_at) / RFU GAP43 (11754022_s_at) / Fold change /veh GAP43 (11754022_s_at) / RFU A4GNT (11735810_at) / Fold change /veh A4GNT (11735810_at) / RFU PRB3 (11715151_x_at) / Fold change /veh PRB3 (11715151_x_at) / RFU TUBB4B (11761932_at) / Fold change /veh TUBB4B (11761932_at) / RFU CAPN14 (11732068_a_at) / Fold change /veh CAPN14 (11732068_a_at) / RFU TMCC2 (11721928_a_at) / Fold change /veh TMCC2 (11721928_a_at) / RFU IRGQ (11745062_a_at) / Fold change /veh IRGQ (11745062_a_at) / RFU FAM174B (11720279_a_at) / Fold change /veh FAM174B (11720279_a_at) / RFU TMPRSS4 (11748680_a_at) / Fold change /veh TMPRSS4 (11748680_a_at) / RFU FAM212B (11763350_a_at) / Fold change /veh FAM212B (11763350_a_at) / RFU PLEKHG5 (11743358_a_at) / Fold change /veh PLEKHG5 (11743358_a_at) / RFU ZSCAN30 (11745921_a_at) / Fold change /veh ZSCAN30 (11745921_a_at) / RFU CMKLR1 (11741424_a_at) / Fold change /veh CMKLR1 (11741424_a_at) / RFU LOC101060620 /// MAPK8IP1 (11723275_at) / Fold change /veh LOC101060620 /// MAPK8IP1 (11723275_at) / RFU SPTSSB (11747773_x_at) / Fold change /veh SPTSSB (11747773_x_at) / RFU PRSS12 (11739890_at) / Fold change /veh PRSS12 (11739890_at) / RFU BIN1 (11741810_x_at) / Fold change /veh BIN1 (11741810_x_at) / RFU WNT11 (11732464_a_at) / Fold change /veh WNT11 (11732464_a_at) / RFU C10orf10 (11716521_a_at) / Fold change /veh C10orf10 (11716521_a_at) / RFU C5orf56 (11738089_at) / Fold change /veh C5orf56 (11738089_at) / RFU CYB561 (11721691_x_at) / Fold change /veh CYB561 (11721691_x_at) / RFU ANKRD19P (11752326_a_at) / Fold change /veh ANKRD19P (11752326_a_at) / RFU OR2T12 /// OR2T33 /// OR2T8 (11738714_s_at) / Fold change /veh OR2T12 /// OR2T33 /// OR2T8 (11738714_s_at) / RFU VCAN (11748164_a_at) / Fold change /veh VCAN (11748164_a_at) / RFU JSRP1 (11732532_at) / Fold change /veh JSRP1 (11732532_at) / RFU KRTAP10-11 (11738290_x_at) / Fold change /veh KRTAP10-11 (11738290_x_at) / RFU MYO3A (11730013_a_at) / Fold change /veh MYO3A (11730013_a_at) / RFU EBF3 (11725865_a_at) / Fold change /veh EBF3 (11725865_a_at) / RFU CAMK2N1 (11719241_x_at) / Fold change /veh CAMK2N1 (11719241_x_at) / RFU C5orf56 (11738088_a_at) / Fold change /veh C5orf56 (11738088_a_at) / RFU OLFML3 (11715873_a_at) / Fold change /veh OLFML3 (11715873_a_at) / RFU LOC100653217 /// NTM (11731650_a_at) / Fold change /veh LOC100653217 /// NTM (11731650_a_at) / RFU MAPK11 (11762145_a_at) / Fold change /veh MAPK11 (11762145_a_at) / RFU FIZ1 (11724087_x_at) / Fold change /veh FIZ1 (11724087_x_at) / RFU OASL (11726364_x_at) / Fold change /veh OASL (11726364_x_at) / RFU SOX15 (11748057_x_at) / Fold change /veh SOX15 (11748057_x_at) / RFU CD79A (11719716_a_at) / Fold change /veh CD79A (11719716_a_at) / RFU HIST1H1D (11736915_at) / Fold change /veh HIST1H1D (11736915_at) / RFU CASKIN2 (11723855_a_at) / Fold change /veh CASKIN2 (11723855_a_at) / RFU LOC730098 (11760151_x_at) / Fold change /veh LOC730098 (11760151_x_at) / RFU OR4N2 (11742367_at) / Fold change /veh OR4N2 (11742367_at) / RFU PRRT2 (11749266_a_at) / Fold change /veh PRRT2 (11749266_a_at) / RFU SNX32 (11753110_a_at) / Fold change /veh SNX32 (11753110_a_at) / RFU CDHR5 (11726645_a_at) / Fold change /veh CDHR5 (11726645_a_at) / RFU RCAN1 (11760418_a_at) / Fold change /veh RCAN1 (11760418_a_at) / RFU FAM167A (11723789_a_at) / Fold change /veh FAM167A (11723789_a_at) / RFU FAM26E (11764081_at) / Fold change /veh FAM26E (11764081_at) / RFU ISYNA1 (11749810_s_at) / Fold change /veh ISYNA1 (11749810_s_at) / RFU ACY1 (11761880_at) / Fold change /veh ACY1 (11761880_at) / RFU 11764098_at / Fold change /veh 11764098_at / RFU SAMD14 (11745864_x_at) / Fold change /veh SAMD14 (11745864_x_at) / RFU NPB (11741838_a_at) / Fold change /veh NPB (11741838_a_at) / RFU TMPRSS6 (11731388_a_at) / Fold change /veh TMPRSS6 (11731388_a_at) / RFU KRTAP10-2 (11738614_at) / Fold change /veh KRTAP10-2 (11738614_at) / RFU ARHGAP8 /// PRR5-ARHGAP8 (11727945_x_at) / Fold change /veh ARHGAP8 /// PRR5-ARHGAP8 (11727945_x_at) / RFU KRTAP5-7 /// NADSYN1 (11734609_at) / Fold change /veh KRTAP5-7 /// NADSYN1 (11734609_at) / RFU RASL12 (11751679_a_at) / Fold change /veh RASL12 (11751679_a_at) / RFU CDKN2B (11736163_a_at) / Fold change /veh CDKN2B (11736163_a_at) / RFU PRF1 (11729649_at) / Fold change /veh PRF1 (11729649_at) / RFU, ZNF638 /// ZNF638-IT1 / Fold change vs veh, ZNF638 /// ZNF638-IT1 / RFU, PANK3 / Fold change vs veh, PANK3 / RFU, SH3YL1 / Fold change vs veh, SH3YL1 / RFU, ZEB2 / Fold change vs veh, ZEB2 / RFU, NRIP1 / Fold change vs veh, NRIP1 / RFU, PTTG1IP / Fold change vs veh, PTTG1IP / RFU, CAPN2 / Fold change vs veh, CAPN2 / RFU, MED14 / Fold change vs veh, MED14 / RFU, SNORA58 / Fold change vs veh, SNORA58 / RFU, C1orf63 / Fold change vs veh, C1orf63 / RFU, LRRFIP1 / Fold change vs veh, LRRFIP1 / RFU, NDUFAF7 / Fold change vs veh, NDUFAF7 / RFU, SLC12A2 / Fold change vs veh, SLC12A2 / RFU, IBTK / Fold change vs veh, IBTK / RFU, ESF1 / Fold change vs veh, ESF1 / Fold change vs veh, TMEM50B / RFU, TAOK1 / Fold change vs veh, TAOK1 / RFU, ACBD3 / Fold change vs veh, ACBD3 / RFU, TMA16 / Fold change vs veh, TMA16 / RFU, RWDD3 / Fold change vs veh, RWDD3 / RFU, BCAT1 / Fold change vs veh, BCAT1 / RFU, EDEM3 / Fold change vs veh, EDEM3 / RFU, TMEM33 / Fold change vs veh, TMEM33 / RFU, WDR75 / Fold change vs veh, WDR75 / RFU, AHCTF1 / Fold change vs veh, AHCTF1 / RFU, TFRC / Fold change vs veh, TFRC / RFU, ZDHHC17 / Fold change vs veh, ZDHHC17 / RFU, NOM1 / Fold change vs veh, NOM1 / RFU, ARL8B / Fold change vs veh, ARL8B / RFU, ZBTB11 / Fold change vs veh, ZBTB11 / RFU, TAMM41 / Fold change vs veh, TAMM41 / RFU, KIAA1704 /// LOC100996395 / Fold change vs veh, KIAA1704 /// LOC100996395 / RFU, ING1 / Fold change vs veh, ING1 / RFU, TRMT61B / Fold change vs veh, TRMT61B / RFU, FUBP3 / Fold change vs veh, FUBP3 / RFU, TP53 / Fold change vs veh, TP53 / RFU, TNKS2 / Fold change vs veh, TNKS2 / RFU, ZFP14 / Fold change vs veh, ZFP14 / RFU, ACTR2 / Fold change vs veh, ACTR2 / RFU, PPP3R1 / Fold change vs veh, PPP3R1 / RFU, PIK3R1 / Fold change vs veh, PIK3R1 / RFU, HNRNPA1 / Fold change vs veh, HNRNPA1 / RFU, RNF170 / Fold change vs veh, RNF170 / RFU, ZNF28 / Fold change vs veh, ZNF28 / RFU, RNGTT / Fold change vs veh, RNGTT / RFU, OGT / Fold change vs veh, OGT / RFU, BRD1 / Fold change vs veh, BRD1 / RFU, MARS / Fold change vs veh, MARS / RFU, ZNF655 / Fold change vs veh, ZNF655 / RFU, FAHD1 / Fold change vs veh, FAHD1 / RFU, BDP1 / Fold change vs veh, BDP1 / RFU, LRRCC1 / Fold change vs veh, LRRCC1 / RFU, ARID1A / Fold change vs veh, ARID1A / RFU, ZNF146 / Fold change vs veh, ZNF146 / RFU, ZNF330 / Fold change vs veh, ZNF330 / RFU, GPN3 / Fold change vs veh, GPN3 / RFU, C9orf123 / Fold change vs veh, C9orf123 / RFU, N4BP2L2 / Fold change vs veh, N4BP2L2 / RFU, ARFIP1 / Fold change vs veh, ARFIP1 / RFU, FAM179B / Fold change vs veh, FAM179B / RFU, BCL10 / Fold change vs veh, BCL10 / RFU, UHRF1BP1L / Fold change vs veh, UHRF1BP1L / RFU, BET1 / Fold change vs veh, BET1 / RFU, CNOT2 / Fold change vs veh, CNOT2 / RFU, ZNF268 / Fold change vs veh, ZNF268 / Fold change vs veh, ZNF507 / RFU, DGCR2 / Fold change vs veh, DGCR2 / RFU, WDSUB1 / Fold change vs veh, WDSUB1 / Fold change vs veh, HSP90B1 /// MIR3652 / RFU, ADSS / Fold change vs veh, ADSS / RFU, GK / Fold change vs veh, GK / RFU, ZNF148 / Fold change vs veh, ZNF148 / RFU, TAF9 / Fold change vs veh, TAF9 / RFU, SLC1A5 / Fold change vs veh, SLC1A5 / RFU, SLMO2 / Fold change vs veh, SLMO2 / RFU, ABCC4 / Fold change vs veh, ABCC4 / RFU, LOC101060439 /// RAP1B / Fold change vs veh, LOC101060439 /// RAP1B / RFU, RFX7 / Fold change vs veh, RFX7 / RFU, GTPBP10 / Fold change vs veh, GTPBP10 / RFU, CNEP1R1 / Fold change vs veh, CNEP1R1 / RFU, BIVM-ERCC5 /// ERCC5 / Fold change vs veh, BIVM-ERCC5 /// ERCC5 / RFU, ILF3 / Fold change vs veh, ILF3 / RFU 11762660_at / Fold change /veh 11762660_at / RFU VCAN (11757783_s_at) / Fold change /veh VCAN (11757783_s_at) / RFU DDX43 (11728927_at) / Fold change /veh DDX43 (11728927_at) / RFU KRT8 (11758188_x_at) / Fold change /veh KRT8 (11758188_x_at) / RFU NKD1 (11759106_at) / Fold change /veh NKD1 (11759106_at) / RFU SRD5A1 (11742802_a_at) / Fold change /veh SRD5A1 (11742802_a_at) / RFU TPSAB1 /// TPSB2 (11721975_s_at) / Fold change /veh TPSAB1 /// TPSB2 (11721975_s_at) / RFU GSTM3 (11746129_a_at) / Fold change /veh GSTM3 (11746129_a_at) / RFU IL23R (11737362_x_at) / Fold change /veh IL23R (11737362_x_at) / RFU TMEM51 (11727254_a_at) / Fold change /veh TMEM51 (11727254_a_at) / RFU PIWIL2 (11732686_x_at) / Fold change /veh PIWIL2 (11732686_x_at) / RFU ORM1 (11744905_x_at) / Fold change /veh ORM1 (11744905_x_at) / RFU CCDC152 (11743942_at) / Fold change /veh CCDC152 (11743942_at) / RFU ECM1 (11717891_a_at) / Fold change /veh ECM1 (11717891_a_at) / RFU IL23R (11748794_a_at) / Fold change /veh IL23R (11748794_a_at) / RFU TNFAIP8L3 (11732012_x_at) / Fold change /veh TNFAIP8L3 (11732012_x_at) / RFU MBOAT4 (11741988_at) / Fold change /veh MBOAT4 (11741988_at) / RFU 11764193_at / Fold change /veh 11764193_at / RFU TMEM53 (11763286_at) / Fold change /veh TMEM53 (11763286_at) / RFU MAGEB2 (11727129_at) / Fold change /veh MAGEB2 (11727129_at) / RFU TMEM200A (11744735_a_at) / Fold change /veh TMEM200A (11744735_a_at) / RFU CCDC152 (11751479_a_at) / Fold change /veh CCDC152 (11751479_a_at) / RFU FAM211A (11726209_a_at) / Fold change /veh FAM211A (11726209_a_at) / RFU RGS16 (11746705_a_at) / Fold change /veh RGS16 (11746705_a_at) / RFU VCAN (11755009_s_at) / Fold change /veh VCAN (11755009_s_at) / RFU RHOB (11743442_s_at) / Fold change /veh RHOB (11743442_s_at) / RFU RGS16 (11720943_a_at) / Fold change /veh RGS16 (11720943_a_at) / RFU RGS16 (11720944_at) / Fold change /veh RGS16 (11720944_at) / RFU, VPS4B / Fold change vs veh, VPS4B / RFU, CREB1 / Fold change vs veh, CREB1 / RFU, DNAJC13 / Fold change vs veh, DNAJC13 / RFU, GNAQ / Fold change vs veh, GNAQ / RFU, CDK5R1 / Fold change vs veh, CDK5R1 / RFU, ZRANB3 / Fold change vs veh, ZRANB3 / RFU, CUL4A / Fold change vs veh, CUL4A / RFU, CCNY / Fold change vs veh, CCNY / RFU, UFL1 / Fold change vs veh, UFL1 / RFU, COG3 / Fold change vs veh, COG3 / RFU, DIAPH2 / Fold change vs veh, DIAPH2 / RFU, SKA2 / Fold change vs veh, SKA2 / RFU, AFF3 / Fold change vs veh, AFF3 / RFU, LMF1 / Fold change vs veh, LMF1 / RFU, IPO11 / Fold change vs veh, IPO11 / RFU, DFFB / Fold change vs veh, DFFB / RFU, FOXP1 / Fold change vs veh, FOXP1 / RFU, CARD8 / Fold change vs veh, CARD8 / RFU, STRN3 / Fold change vs veh, STRN3 / RFU, ADK / Fold change vs veh, ADK / RFU, RASSF2 / Fold change vs veh, RASSF2 / RFU, WIPF1 / Fold change vs veh, WIPF1 / RFU, LARP1B / Fold change vs veh, LARP1B / RFU, RASA1 / Fold change vs veh, RASA1 / RFU, RB1 / Fold change vs veh, RB1 / RFU, PPFIA1 / Fold change vs veh, PPFIA1 / RFU, MAT2A / Fold change vs veh, MAT2A / RFU, CCT5 / Fold change vs veh, CCT5 / RFU, WDR92 / Fold change vs veh, WDR92 / RFU, CUX1 / Fold change vs veh, CUX1 / RFU, TTC7A / Fold change vs veh, TTC7A / RFU, TMEM135 / Fold change vs veh, TMEM135 / RFU, DEPTOR / Fold change vs veh, DEPTOR / RFU, CPM / Fold change vs veh, CPM / RFU, DNAJB6 / Fold change vs veh, DNAJB6 / RFU, CACNA2D3 / Fold change vs veh, CACNA2D3 / RFU, DTX4 / Fold change vs veh, DTX4 / RFU, TFCP2 / Fold change vs veh, TFCP2 / RFU, GMCL1 /// GMCL1P1 / Fold change vs veh, GMCL1 /// GMCL1P1 / RFU, AEBP2 / Fold change vs veh, AEBP2 / RFU, SNHG1 /// SNORD22 /// SNORD25 /// SNORD26 /// SNORD27 /// SNORD28 /// SNORD29 /// SNORD31 / Fold change vs veh, SNHG1 /// SNORD22 /// SNORD25 /// SNORD26 /// SNORD27 /// SNORD28 /// SNORD29 /// SNORD31 / Fold change (Aza/veh), C12orf56 (ProbeSet 11735607_a_at) / Fold change (ACY-1035/veh), C12orf56 (ProbeSet 11735607_a_at) / Fold change (Aza/veh), FGFR1OP (ProbeSet 11751329_s_at) / Fold change (ACY-1035/veh), FGFR1OP (ProbeSet 11751329_s_at) / Fold change (Aza/veh), VPS36 (ProbeSet 11739960_a_at) / Fold change (ACY-1035/veh), VPS36 (ProbeSet 11739960_a_at) / RFU SYPL1 (11715823_x_at) / Fold change /veh SYPL1 (11715823_x_at) / RFU IGFBP7 (11715501_s_at) / Fold change /veh IGFBP7 (11715501_s_at) / RFU REEP3 (11722064_at) / Fold change /veh REEP3 (11722064_at) / RFU IGLL1 (11728026_x_at) / Fold change /veh IGLL1 (11728026_x_at): dose or concentration left out as unconfirmed", "conditions": "ProbeSet 11743286_at; LIST D", "data": [{"compound": "Nc1ccc(-c2cccs2)cc1NC(=O)c1ccc2c(c1)cc(C1CC1)n2CCN1CCOCC1", "note": "[ACY-1035]", "values": [{"measurement": "RFU, DTX4", "result": 268.88, "unit": "RFU"}]}]}
